Saturated solubility and saturated dissolution concentration data for two molecules are collected here from US20230027601A1, “METHOD FOR MANUFACTURING REVAUDIOSIDE-D-CONTAINING CRYSTALLIZED PRODUCT, AND REVAUDIOSIDE-D-CONTAINING CRYSTALLIZED PRODUCT” (SUNTORY HOLDINGS LIMITED, priority 2019, published 2023).

Molecules are shown by their SMILES.

The nature of the series: saturated solubility of RebA and RebD in ethanol solvent (excess loading, 24 h stirring, filtrate measured with LCMS). The class given is physicochemical. The settings on record: for saturated solubility: 90% by mass of EtOH, 10° C., values used in calculation of the degree of supersaturation; for saturated dissolution concentration: 90% ethanol solvent at 10° C., according to FIG. 1. The protocol: The saturated solubility is herein measured according to the following method. That is, 100 ml of a solvent having a predetermined methanol or ethanol concentration (w/w) is placed in a container (having a volume of 100 ml or 200 ml, suitably 200 ml), the liquid temperature is set to 10° C. by a water bath in advance, and then the solvent is stirred at 200 rpm, and a target substance is loaded in an excessive amount (amount until suspension is made). After 24 hours, a filtrate is obtained by a 0.45-um membrane filter, and the amount of the target substance (RebA or RebD) included in the filtrate is measured with LCMS. LCMS here used is suitably LCMS 8050 manufactured by Shimadzu Corporation.
Specifically, 100 ml of a solvent having a predetermined ethanol concentration (w/w) was placed in a […] glass container (separable round-bottomed flask, Tokyo Rikakikai Co., Ltd.), set to a predetermined temperature by a water bath (PCC-7000, Tokyo Rikakikai Co., Ltd.) in advance, and then stirred (SPZ-100, Tokyo Rikakikai Co., Ltd.) at 200 rpm, and RebA (J-100, Morita Kagaku Kogyo Co., Ltd.) or RebD (Jining Renewal & Joint International, China) was loaded in an excessive amount (amount until suspension was achieved). After 24 hours, a filtrate was obtained by a 0.45-um membrane filter, the amount of RebA or RebD included in the filtrate was measured with LCMS (LCMS 8050 manufactured by Shimadzu Corporation), and the solubility curve was created. The results are illustrated in FIG. 1.

As for `C=C1C[C@@]23CC[C@H]4[C@@](C)(CCC[C@@]4(C)C(=O)O[C@@H]4O[C@H](CO)[C@@H](O)[C@H](O)[C@H]4O)[C@@H]2CC[C@]1(O[C@@H]1O[C@H](CO)[C@@H](O)[C@H](O[C@@H]2O[C@H](CO)[C@@H](O)[C@H](O)[C@H]2O)[C@H]1O[C@@H]1O[C@H](CO)[C@@H](O)[C@H](O)[C@H]1O)C3` [RebA, rebaudioside A], the saturated solubility is recorded as 8270.5 ppm and the saturated dissolution concentration is recorded as 8,250 ppm.
In the same order, the values of `C=C1C[C@@]23CC[C@H]4[C@@](C)(CCC[C@@]4(C)C(=O)O[C@@H]4O[C@H](CO)[C@@H](O)[C@H](O)[C@H]4O[C@@H]4O[C@H](CO)[C@@H](O)[C@H](O)[C@H]4O)[C@@H]2CC[C@]1(O[C@@H]1O[C@H](CO)[C@@H](O)[C@H](O[C@@H]2O[C@H](CO)[C@@H](O)[C@H](O)[C@H]2O)[C@H]1O[C@@H]1O[C@H](CO)[C@@H](O)[C@H](O)[C@H]1O)C3` [RebD, rebaudioside D] are 99.33 ppm and 99.3 ppm.
